Data: US5807885A, “Amidine derivatives with nitric oxide synthetase activities” (priority 1996, dated 1998)

Key:
[1] = biological target: T1, endothelial nitric oxide synthetase (Homo sapiens, UniProt P29474); assay: Screen C: screen for endothelial nitric oxide synthetase inhibitory activity; format: biochemical
T1 construct: Enzyme may be isolated from human umbilical vein endothelial cells (HUVECs); host or cells: human umbilical vein endothelial cells (HUVECs)
Description: (C) Screen for endothelial nitric oxide synthetase inhibitory activity
Enzyme may be isolated from human umbilical vein endothelial cells (HUVECs) by a procedure based on that of Pollock et al (1991) Proc. Nat. […] HUVECs were purchased from Clonetics Corp (San Diego, Calif., USA) and cultured to confluency. Cells can be maintained to passage 35-40 without significant loss of yield of nitric oxide synthetase. When cells reach confluency, they are resuspended in Dulbecco's phosphate buffered saline, centrifuged at 800 rpm for 10 mins, the cell pellet homogenised in ice-cold 50 mM Tris-HCl, 1 mM EDTA, 10% glycerol, 1 mM phenylmethylsulphonylfluoride, 2 μM leupeptin at pH 4.2. Following centrifugation at 34,000 rpm for 60 mins, the pellet is solubilised in the homogenisation buffer which also contains 20 mM CHAPS. After a 30 min incubation on ice, the suspension is centrifuged at 34,000 rpm for 30 mins. The resulting supernatant is stored at -80° C. until use. […]
Labelled L-citrulline is separated from labelled L-arginine by chromatography over a Dowex AG-50W-X8 200-400 mesh column. […] The L-citrulline is then quantified by scintillation counting. […]

[2] = biological target: T2, neuronal nitric oxide synthetase (Rattus norvegicus, UniProt P29476); assay: Screen A: screen for neuronal nitric oxide synthetase inhibitory activity; format: biochemical; settings: for IC50: neuronal isoform, rat hippocampus or cerebellum supernatant, read-out: IC50 (concentration of drug substance which gives 50% enzyme inhibition in the assay)
T2 construct: Enzyme was isolated from rat hippocampus or cerebellum; from tissue; host or cells: cerebellum or hippocampus of male Sprague-Dawley rat, 20,000 g supernatant
T2 sequence (P29476 whole entry, canonical isoform): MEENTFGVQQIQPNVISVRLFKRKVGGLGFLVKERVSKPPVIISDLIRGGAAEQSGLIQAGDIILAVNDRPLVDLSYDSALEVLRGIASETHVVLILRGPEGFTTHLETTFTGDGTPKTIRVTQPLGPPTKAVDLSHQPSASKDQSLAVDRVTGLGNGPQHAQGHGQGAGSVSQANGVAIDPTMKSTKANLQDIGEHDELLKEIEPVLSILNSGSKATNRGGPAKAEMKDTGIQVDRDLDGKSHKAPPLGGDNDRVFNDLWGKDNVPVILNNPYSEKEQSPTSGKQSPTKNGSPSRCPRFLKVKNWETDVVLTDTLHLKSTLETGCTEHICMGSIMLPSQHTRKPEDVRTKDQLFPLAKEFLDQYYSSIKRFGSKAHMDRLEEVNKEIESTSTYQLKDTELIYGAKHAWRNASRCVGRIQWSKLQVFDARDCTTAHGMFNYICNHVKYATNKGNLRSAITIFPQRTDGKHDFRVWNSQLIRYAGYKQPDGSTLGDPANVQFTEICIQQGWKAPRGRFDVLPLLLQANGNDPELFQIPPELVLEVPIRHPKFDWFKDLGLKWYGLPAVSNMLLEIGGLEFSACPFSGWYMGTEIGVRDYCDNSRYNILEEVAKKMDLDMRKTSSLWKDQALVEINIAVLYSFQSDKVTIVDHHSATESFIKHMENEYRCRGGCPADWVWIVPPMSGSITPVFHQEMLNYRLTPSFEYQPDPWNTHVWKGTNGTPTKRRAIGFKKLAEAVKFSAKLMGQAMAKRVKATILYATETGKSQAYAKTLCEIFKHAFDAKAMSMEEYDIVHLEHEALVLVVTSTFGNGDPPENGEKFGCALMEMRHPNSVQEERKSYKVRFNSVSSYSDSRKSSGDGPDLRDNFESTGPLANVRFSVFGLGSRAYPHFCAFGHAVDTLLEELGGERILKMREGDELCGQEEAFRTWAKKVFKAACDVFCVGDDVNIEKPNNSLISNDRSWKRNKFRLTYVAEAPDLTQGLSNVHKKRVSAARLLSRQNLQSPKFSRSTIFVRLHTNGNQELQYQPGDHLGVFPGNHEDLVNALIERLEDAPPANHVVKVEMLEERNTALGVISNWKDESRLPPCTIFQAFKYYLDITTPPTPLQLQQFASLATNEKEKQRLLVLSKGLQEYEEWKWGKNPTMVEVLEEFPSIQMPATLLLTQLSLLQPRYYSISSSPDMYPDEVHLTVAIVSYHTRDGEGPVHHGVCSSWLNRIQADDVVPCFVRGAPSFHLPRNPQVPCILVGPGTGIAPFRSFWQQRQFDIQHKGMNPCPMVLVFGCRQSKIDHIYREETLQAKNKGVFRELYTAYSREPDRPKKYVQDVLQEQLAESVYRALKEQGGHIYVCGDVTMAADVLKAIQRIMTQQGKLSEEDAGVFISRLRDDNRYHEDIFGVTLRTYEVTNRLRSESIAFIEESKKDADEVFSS
Description: (A) Screen for neuronal nitric oxide synthetase inhibitory activity
Enzyme was isolated from rat hippocampus or cerebellum. The cerebellumn or hippocampus of a male Sprague-Dawley rat (250-275 g) is removed following CO2 anaesthesia of the animal and decapitation. Cerebellar or hippocampal supernatant is prepared by homogenisation in 50 mM Tris-HCl with 1 mM EDTA buffer (pH 7.2 at 25° C.) and centifugation for 15 minutes at 20,000 g. Residual L-arginine is removed from the supernatant by chromatography through Dowex AG-50W-X8 sodium form and hydrogen form columns successively, and further centrifugation at 1000 g for 30 seconds.
For the assay, 25 μl of the final supernatant is added to each of 12 test tubes containing 25 μl L-arginine solution (of concentration 18 μM ^1 H-L-arginine, 96 nM ^3 H-L-arginine) and either 25 μl of an assay buffer (50 mM HEPES, 1 mM EDTA, 1.5 mM CaCl2, pH 7.4) or 25 μl of test compound in the buffer at 22° C. To each test tube was added 75 μl of complete assay buffer (50 mM HEPES, 1 mM EDTA, 1.5 mM CaCl2, 1 mM DTF, 100 μM NADPH, 10 μg/ml calmodulin, pH 7.4) to initiate the reaction and the reaction is stopped after 10 minutes by addition of 2 ml of a termination buffer (20 mM HEPES, 2 mM EDTA, pH 55).
Labelled L-citrulline is separated from labelled L-arginine by chromatography over a Dowex AG-50W-X8 200-400 mesh column. 1 ml of each terminated reaction is added to an individual 1 ml column and the eluant combined with that from two 1 ml distilled water washes and 16 ml of scintillation cocktal The L-citrulline is then quantified by scintillation counting.
IC50 values for test compounds were initially estimated from the inhibiting activity of 1, 10 and 100 μM solutions of the compounds. Compounds that inhibited the enzyme by at least 50% at 10 μM were retested using more appropriate concentrations so that an IC50 could be determined.

[3] = biological target: T3, macrophage nitric oxide synthetase (Mus musculus, UniProt P29477); assay: Screen B: screen for macrophage nitric oxide synthetase activity; format: biochemical, murine; settings: macrophage isoform (Screen B) versus neuronal isoform (Screen A)
T3 construct: Nitric oxide synthetase is produced by cells in response to interferon-γ (IFNγ) and lipopolysaccharide (LPS); endogenous in cells; host or cells: murine macrophage cell line J774A-1, induced with IFN-gamma and LPS (cell line from Imperial Cancer Research Fund)
Description: The enzyme nitric oxide synthetase has a number of isoforms and compounds of formula I, or pharmaceutically acceptable salts thereof, may be screened for nitric oxide synthetase inhibitory activity by procedures based on those of Bredt and Snyder in Proc. Natl. Acad. Sci (1990) 87, 682-685 and Forstermann et. al. (1992) Eur. J. Pharm. 225,161-165 as follows. Nitric axide synthetase converts ^3 H-L-arginine to ^3 H-L-citrulline which can be separated by cation exchange chromatography and quantified by liquid scintillation counting.
(B) Screen for macrophage nitric oxide synthetase activity
Enzyme is prepared; after induction, from the cultured murine macrophage cell line J774A-1 (obtained from laboratories of the Imperial Cancer Research Fund). J774A-1 cells are cultured in Dulbecco's Modified Eagles Medium (DMEM) supplemented with 10% foetal bovine serum, 4 mM L-glutamine and antibiotics (100 units/ml penicillin G, 100 μg/ml streptomycin & 0.25 μg/m amphotericin B). Cells are routinely grown in […] flasks containing 35 ml medium kept at 37° C. and in a humidified atmosphere containing 5% CO2.
Nitric oxide synthetase is produced by cells in response to interferon-γ (IFNγ) and lipopolysaccharide (LPS). […]
Labelled L-citrulline is separated from labelled L-arginine using Dowex AG-50W. […] After allowing the samples to dry the L-citrulline is quantified by scintillation counting. […]

T1 sequence (P29474 2-1203): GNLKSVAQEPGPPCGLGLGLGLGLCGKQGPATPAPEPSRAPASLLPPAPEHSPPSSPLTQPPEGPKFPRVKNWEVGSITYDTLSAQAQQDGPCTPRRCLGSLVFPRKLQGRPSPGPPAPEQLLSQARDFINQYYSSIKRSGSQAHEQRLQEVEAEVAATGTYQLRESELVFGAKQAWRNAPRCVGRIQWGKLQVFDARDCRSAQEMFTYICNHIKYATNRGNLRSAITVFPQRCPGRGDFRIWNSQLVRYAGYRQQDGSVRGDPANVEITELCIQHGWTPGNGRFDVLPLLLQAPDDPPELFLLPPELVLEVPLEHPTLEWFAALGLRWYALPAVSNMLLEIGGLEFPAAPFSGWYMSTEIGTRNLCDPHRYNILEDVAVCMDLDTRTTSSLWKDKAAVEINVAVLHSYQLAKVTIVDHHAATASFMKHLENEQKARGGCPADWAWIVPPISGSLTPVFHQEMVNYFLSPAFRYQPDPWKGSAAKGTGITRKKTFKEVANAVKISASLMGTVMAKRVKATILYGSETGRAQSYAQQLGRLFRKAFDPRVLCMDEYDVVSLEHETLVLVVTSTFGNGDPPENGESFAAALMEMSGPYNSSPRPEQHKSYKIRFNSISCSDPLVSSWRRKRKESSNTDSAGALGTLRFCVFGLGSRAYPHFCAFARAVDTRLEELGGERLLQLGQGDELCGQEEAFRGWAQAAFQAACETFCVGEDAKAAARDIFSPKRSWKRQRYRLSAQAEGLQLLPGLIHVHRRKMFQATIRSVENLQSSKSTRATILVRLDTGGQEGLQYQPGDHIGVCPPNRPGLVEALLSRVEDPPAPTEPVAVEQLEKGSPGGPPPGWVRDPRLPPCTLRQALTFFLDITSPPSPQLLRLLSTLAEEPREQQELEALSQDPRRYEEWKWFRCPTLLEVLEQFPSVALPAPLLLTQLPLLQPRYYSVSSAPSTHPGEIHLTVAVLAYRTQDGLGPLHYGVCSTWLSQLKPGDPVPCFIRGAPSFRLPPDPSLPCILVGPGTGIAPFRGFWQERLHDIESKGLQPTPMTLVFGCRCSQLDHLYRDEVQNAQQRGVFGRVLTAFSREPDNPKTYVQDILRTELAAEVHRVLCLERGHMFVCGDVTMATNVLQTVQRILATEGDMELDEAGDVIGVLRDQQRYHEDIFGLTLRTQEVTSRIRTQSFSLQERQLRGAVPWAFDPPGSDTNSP

SMILES	IC50 [2]	other results
NC(=N[N+](=O)[O-])NCCC[C@H](N)C(=O)O [N-nitro-L-arginine, reference compound]	–	inhibition at 1 µM ([1]; Screen C, at a concentration of 1 μM, HUVEC enzyme, read-out: inhibition of nitric oxide synthetase (reference standard)): 70 to 90%
CN(CCc1ccc(NC(=N)C(F)(F)F)cc1)Cc1ccccc1 [Example 72, N-(4-(2-((phenylmethyl)(methyl)amino)ethyl)phenyl)trifluoroacetimidamide]	–	inhibition at 10 µM ([2]; at 10 μM): 17%
N=C(Nc1ccc(CCCC(=O)N2CCOCC2)cc1)c1cccs1 [27(a), N-(4-(3-((4-morpholinyl)carbonyl)propyl)phenyl)-2-thiophenecarboximidamide]	< 10 µM	–
NC(=Nc1ccc(NC(=O)N(c2ccccc2)c2ccccc2)cc1)c1cccs1 [Example 48, N-[4-(((Diphenylamino)carbonyl)amino)phenyl]-2-thiophenecarboxamidine]	< 100 µM	–
N=C(Nc1ccc(C(=O)Nc2ccccc2)cc1)c1cccs1 [Example 27(b), N-(4-((phenylamino)carbonyl)phenyl)-2-thiophenecarboximidamide]	< 10 µM	–
NC(=Nc1ccc(CCNCc2ccccc2)cc1)c1cccs1 [Example 1, N-(4-(2-((phenylmethyl)amino)ethyl)phenyl)-2-thiophenecarboximidamide]	< 10 µM	IC50 in Screen C relative to IC50 in Screen A ([1]; endothelial isoform (Screen C) versus neuronal isoform (Screen A)): more than 10 times; IC50 in Screen B relative to IC50 in Screen A [3]: more than 10 times
